# Values of other authors, collected in US20240315993A1, “ANTIPARASITIC COMPOUNDS” (Intervet Inc., priority 2021, published 2024).
# Columns and labels:
# [1] = test system: Beet Armyworm (Spodoptera exigua); conditions: Beet Armyworm second instar larvae, 128-well diet tray, 50 μg/cm^2, five to seven days, average of eight wells; cited from earlier work
# [2] = test system: Yellow Fever Mosquito (Aedes aegypti); conditions: Aedes aegypti larvae about 1 day old, 96-well plate, scored after 3 days; cited from earlier work
# [3] = test system: Cabbage Looper (Trichoplusia ni); conditions: Cabbage Looper second instar larvae, 128-well diet tray, 50 μg/cm^2, five to seven days, average of eight wells; cited from earlier work
Structure (SMILES),"Test A: Bioassay on BAW, percent mortality rating [1]","Test C: Bioassay on Yellow Fever Mosquito, mortality rating [2]","Test B: Bioassay on CL, percent mortality rating [3]"
O=C1Cc2cc(NC(=O)c3cc(NC(=O)C4C(c5cc(Cl)cc(Cl)c5)C4(Cl)Cl)ccc3Cl)ccc2N1 (stereo not drawn) [c60],A (50-100),A (80-100),A (50-100)
O=C(Nc1cc2cc[nH]c2cn1)c1cc(NC(=O)C2C(c3cc(Cl)cc(Cl)c3)C2(Cl)Cl)ccc1Cl (stereo not drawn) [c61],A (50-100),A (80-100),A (50-100)
O=C(Nc1ccc2nccn2c1)c1cc(NC(=O)C2C(c3cc(Cl)cc(Cl)c3)C2(Cl)Cl)ccc1Cl (stereo not drawn) [c62],A (50-100),A (80-100),A (50-100)
Cn1ncc2cc(NC(=O)c3cc(NC(=O)C4C(c5cc(Cl)cc(Cl)c5)C4(Cl)Cl)ccc3Cl)cnc21 (stereo not drawn) [c63],A (50-100),A (80-100),A (50-100)
Cc1ccc2c(NC(=O)c3cc(NC(=O)C4C(c5cc(Cl)cc(Cl)c5)C4(Cl)Cl)ccc3Cl)n[nH]c2c1 (stereo not drawn) [c64],A (50-100),A (80-100),A (50-100)
Cc1cc(N2C(=O)C=CC2=O)ccc1NC(=O)c1cc(NC(=O)C2C(c3cc(Cl)cc(Cl)c3)C2(Cl)Cl)ccc1Cl (stereo not drawn) [c65],A (50-100),A (80-100),A (50-100)
O=C(Nc1cnc2[nH]ccc2c1)c1cc(NC(=O)C2C(c3cc(Cl)cc(Cl)c3)C2(Cl)Cl)ccc1Cl (stereo not drawn) [c66],A (50-100),A (80-100),A (50-100)
CCOC(=O)c1cc2cc(NC(=O)c3cc(NC(=O)C4C(c5cc(Cl)cc(Cl)c5)C4(Cl)Cl)ccc3Cl)ccc2[nH]1 (stereo not drawn) [c67],A (50-100),A (80-100),A (50-100)
CC(C)(C)OC(=O)n1ccc2cc(NC(=O)c3cc(NC(=O)C4C(c5cc(Cl)cc(Cl)c5)C4(Cl)Cl)ccc3Cl)ccc21 (stereo not drawn) [c68],A (50-100),D (No activity noticed in this bioassay),A (50-100)
Cc1c(NC(=O)c2cc(NC(=O)C3C(c4cc(Cl)cc(Cl)c4)C3(Cl)Cl)ccc2Cl)ccc2[nH]ccc12 (stereo not drawn) [c69],A (50-100),A (80-100),A (50-100)
CC(C)(C)c1cc2cc(NC(=O)c3cc(NC(=O)C4C(c5cc(Cl)cc(Cl)c5)C4(Cl)Cl)ccc3Cl)ccc2[nH]1 (stereo not drawn) [c70],A (50-100),A (80-100),A (50-100)
COC(=O)C(O)(c1ccc(NC(=O)c2cc(NC(=O)C3C(c4cc(Cl)cc(Cl)c4)C3(Cl)Cl)ccc2Cl)c(C)c1)C(F)(F)F (stereo not drawn) [c71],A (50-100),A (80-100),A (50-100)
C=C(c1ccc(NC(=O)c2cc(NC(=O)C3C(c4cc(Cl)cc(Cl)c4)C3(Cl)Cl)ccc2Cl)c(C)c1)C(F)(F)F (stereo not drawn) [c72],A (50-100),B (More than 0 - Less than 80),A (50-100)
CCn1ccc2cc(NC(=O)c3cc(NC(=O)C4C(c5cc(Cl)cc(Cl)c5)C4(Cl)Cl)ccc3Cl)ccc21 (stereo not drawn) [c73],A (50-100),A (80-100),A (50-100)
Cc1cc(NC(=O)OC(C)(C)C)ccc1NC(=O)c1cccc(NC(=O)C2C(c3cc(Cl)c(Cl)c(Cl)c3)C2(Cl)Cl)c1 (stereo not drawn) [c74],A (50-100),B (More than 0 - Less than 80),A (50-100)
Cc1cc(NC(=O)OC(C)(C)C)ccc1NC(=O)c1cccc(NC(=O)C2C(c3cc(Cl)cc(Cl)c3)C2(Cl)Cl)c1 (stereo not drawn) [c75],A (50-100),B (More than 0 - Less than 80),A (50-100)
Cc1cc(N)ccc1NC(=O)c1cccc(NC(=O)C2C(c3cc(Cl)c(Cl)c(Cl)c3)C2(Cl)Cl)c1 (stereo not drawn) [c76],A (50-100),A (80-100),A (50-100)
Cc1cc(N)ccc1NC(=O)c1cccc(NC(=O)C2C(c3ccc(Cl)c(Cl)c3)C2(Cl)Cl)c1 (stereo not drawn) [c77],A (50-100),A (80-100),A (50-100)

Structure (SMILES),"Test A: Bioassay on BAW, percent mortality rating [1]","Test C: Bioassay on Yellow Fever Mosquito, mortality rating [2]","Test B: Bioassay on CL, percent mortality rating [3]"
Cc1cc(N)ccc1NC(=O)c1cccc(NC(=O)C2C(c3cc(Cl)cc(Cl)c3)C2(Cl)Cl)c1 (stereo not drawn) [c78],A (50-100),A (80-100),A (50-100)
O=C(Nc1ccccc1)c1cc(NC(=O)C2C(c3cc(Cl)cc(Cl)c3)C2(Cl)Cl)cc(Cl)c1Cl (stereo not drawn) [c79],A (50-100),A (80-100),A (50-100)
CNc1ccc(NC(=O)c2cc(NC(=O)C3C(c4cc(Cl)cc(Cl)c4)C3(Cl)Cl)cc(Cl)c2Cl)cc1 (stereo not drawn) [c80],A (50-100),A (80-100),A (50-100)
Cc1cc(NC(=O)OC(C)(C)C)ccc1NC(=O)c1cc(NC(=O)C2C(c3cc(Cl)cc(Cl)c3)C2(Cl)Cl)ccc1Cl (stereo not drawn) [c81],A (50-100),A (80-100),A (50-100)
Cc1cc(N)ccc1NC(=O)c1cc(NC(=O)C2C(c3cc(Cl)c(Cl)c(Cl)c3)C2(Cl)Cl)ccc1Cl (stereo not drawn) [c84],A (50-100),A (80-100),A (50-100)
N#Cc1ccc(NC(=O)c2cc(NC(=O)C3C(c4cc(Cl)cc(Cl)c4)C3(Cl)Cl)ccc2Cl)c(C#N)c1 (stereo not drawn) [c85],A (50-100),A (80-100),A (50-100)
CN1C(=O)CCc2cc(NC(=O)c3cc(NC(=O)C4C(c5cc(Cl)cc(Cl)c5)C4(Cl)Cl)ccc3Cl)ccc21 (stereo not drawn) [c86],A (50-100),A (80-100),A (50-100)
CN1CCCc2cc(NC(=O)c3cc(NC(=O)C4C(c5cc(Cl)cc(Cl)c5)C4(Cl)Cl)ccc3Cl)ccc21 (stereo not drawn) [c87],A (50-100),A (80-100),A (50-100)
O=C(Nc1ccc2c(c1)CCCN2)c1cc(NC(=O)C2C(c3cc(Cl)cc(Cl)c3)C2(Cl)Cl)ccc1Cl (stereo not drawn) [c88],A (50-100),A (80-100),A (50-100)
Cc1cc(N)ccc1NC(=O)c1cc(NC(=O)C2C(c3ccc(F)c(Cl)c3)C2(Cl)Cl)ccc1Cl (stereo not drawn) [c89],A (50-100),A (80-100),A (50-100)
CC(=O)Nc1cccc(NC(=O)c2cc(NC(=O)C3C(c4cc(Cl)cc(Cl)c4)C3(Cl)Cl)ccc2Cl)n1 (stereo not drawn) [c90],A (50-100),A (80-100),A (50-100)
N#Cc1ccc(NC(=O)c2cc(NC(=O)C3C(c4cc(Cl)cc(Cl)c4)C3(Cl)Cl)ccc2Cl)nc1N (stereo not drawn) [c91],A (50-100),D (No activity noticed in this bioassay),A (50-100)
CS(=NC#N)c1ccc(NC(=O)c2cc(NC(=O)C3C(c4cc(Cl)cc(Cl)c4)C3(Cl)Cl)ccc2Cl)cc1 (stereo not drawn) [c92],A (50-100),A (80-100),A (50-100)
O=C(Nc1ccc2c(ccn2CCF)c1)c1cc(NC(=O)C2C(c3cc(Cl)cc(Cl)c3)C2(Cl)Cl)ccc1Cl (stereo not drawn) [c93],A (50-100),A (80-100),A (50-100)
O=C(Nc1ccc2[nH]c(-c3ccccc3)cc2c1)c1cc(NC(=O)C2C(c3cc(Cl)cc(Cl)c3)C2(Cl)Cl)ccc1Cl (stereo not drawn) [c94],A (50-100),A (80-100),A (50-100)
Cc1cccc(NC(=O)c2cc(NC(=O)C3C(c4cc(Cl)cc(Cl)c4)C3(Cl)Cl)ccc2Cl)c1C#N (stereo not drawn) [c95],A (50-100),A (80-100),A (50-100)
CN1Cc2ccc(NC(=O)c3cc(NC(=O)C4C(c5cc(Cl)cc(Cl)c5)C4(Cl)Cl)ccc3Cl)cc2C1 (stereo not drawn) [c96],A (50-100),A (80-100),A (50-100)
